According to EP0051773A1, “Penicillins, their salts, process for their preparation and pharmaceutical compositions containing them” (Dr. Karl Thomae GmbH, priority 1980, dated 1982):
≈ marks a conversion by molar mass, not a printed value.

Assays:
[1] = system: Pseudomonas aeruginosa Walter; test: experimental intraperitoneal infection in mice, ED50 (survival); assay type: in vivo, Mäuse; details: sc, 168 h, female NMRI mice, i.p. infection, s.c. application, treated three times, 7 days observation, read-out: ED50 Pseud. aerug. Walter
Method: (§1) Eine Reihe der erfindungsgemäßen Verbindungen wurde in vivo bei experimentellen Infektionen an Mäusen untersucht. Man verwendete als pathogene Bakterien E.coli ATCC 11 775 und Pseudomonas aeruginosa Walter. Es wurde eine intraperitoneale Infektion mit 0,2 ml einer 5%igen Mucinsuspension der Bakterien gesetzt. Dies entspricht etwa 2x10^6 Keime E.coli bzw. 8x10^5 Keime Pseudomonas/Maus. Weibliche Mäuse vom Stamm NMRI wurden in Gruppen von jeweils 10 Tieren aufgeteilt, zwei Gruppen blieben unbehandelt, die restlichen Gruppen wurden mit verschiedenen Dosen der jeweiligen erfindungsgemäßen Penicilline zur Bestimmung der ED50 (Dosis, bei der 50 % der Tiere überleben) behandelt. Bei der E.coli-Infektion wurde einmal therapiert. Bei der Pseudomonas-Infektion wurde dreimal behandelt.
(§2) Der Beobachtungszeitraum betrug in beiden Fällen 7 Tage. Die Ergebnisse dieser Teste mit repräsentativen Vertretern der erfindungsgemäßen Penicilline sind in der Tabelle 3 dargestellt.

E.coli ATCC 11 775 = test: as above; assay type: in vivo, Mäuse; details: Escherichia coli, ATCC 11 / ATCC 1175, sc, 168 h; female NMRI mice, i.p. infection, s.c. application, treated once, 7 days observation
Method: as §1, §2

Proteus rettgeri BC 7 = test: serial dilution test in microtiter system (bacteriostasis, MIC); assay type: cell-based; details: Providencia rettgeri, BC7; liquid medium, 18 to 20 h at 37°C; read-out: MHK-Werte Prot. rettg. BC 7
Method: (§3) Für die Untersuchungen wurde die Methode des Reihenverdünnungstestes im Mikrotitersystem angewandt. Die Prüfung der Substanzen auf Bakteriostase erfolgte in flüssigem Medium. Es wurde die Bakteriostasewirkung bei folgenden Konzentrationen untersucht.
(§4) Es wurde ein Nährboden folgender Zusammensetzung benutzt: 10 g Pepton, 8 g Fleischextrakt-Oxoid, 3 g Natriumschlorid, 2 g sek. Natriumphosphat werden mit dest. Wasser auf 1000 ml aufgefüllt (pH 7,2-7,4). Lediglich bei der Testung gegen Streptokokken wurde 1% Glucose hinzugefügt. Das Alter der Primärkulturen betrug etwa 20 Stunden. Die Einstellung der Keimsuspension erfolgte am Photometer (nach "Eppendorf") (Reagenzglas-Durchmesser 14 mm, Filter 546 nm) anhand der Trübung einer Bariumsulfat-Vergleichssuspension, die durch eine Bariumsulfat-Aufschwemmung erzeugt wurde, welche durch die Zugabe von 3,0 ml 1%ige Bariumchloridlösung in 97 ml 1%ige Schwefelsäure entstand. Nach der Einstellung wurden Streptococcus Aronson im Verhältnis 1:15 und die übrigen Testkeime im Verhältnis 1:1500 mit einer Kochsalzlösung weiter verdünnt.
(§5) 16 mg der jeweiligen Substanz wurden in 10 ml-Meßkolben eingewogen und mit dem Lösungsmittel bis zur Marke aufgefüllt. Die weitere Verdünnungsreihe wurde mit destilliertem Wasser oder dem jeweiligen Lösungsmittel hergestellt.
(§6) Die Vertiefungen der Mikrotiterplatten wurden mit 0,2 ml Nährmedium, 0,01 ml der entsprechenden Substanzverdünnung und mit einem Tropfen Keimsuspension (0,01 ml) beschickt und 18 bis 20 Stunden bei 37°C bebrütet. Eine Lösungsmittelkontrolle wurde stets mitgeführt.
(§7) Die Ablesung wurde makroskopisch vorgenommen, wobei die jeweilige Grenkonzentration (= niedrigste noch bakteriostatisch wirksame Konzentration) ermittelt wurde.
(§8) Als Testorganismen wurden benützt: - Staphylococcus aureus SG 511, Escherichia coli ATCC 11 775, Pseudomonas aeruginosa Hamburgensis und Walter, Serratia marcescens ATCC 13 880, Klebsiella pneumoniae ATCC 10 031 und BC 6, Proteus mirabilis Hamburgensis, Proteus rettgeri BC 7 und Enterobacter cloacae ATCC 13 047.
(§9) In der folgenden Tabelle 2 sind die ermittelten minimalen Hemmkonzentrationen (MIC) für typische Vertreter der erfindungsgemäßen Verbindungen aufgeführt, wobei sich die Ziffern auf die Penicilline der Tabelle 1 Seite 18 beziehen.

[2] = system: Klebsiella pneumoniae BC 6; test: as above; assay type: cell-based; details: BC6, liquid medium, 18 to 20 h at 37°C, read-out: MHK-Werte Kl. pneum. BC 6
Method: as §3, §4, §5, §6, §7, §8, §9

[3] = system: Klebsiella pneumoniae ATCC 10 031; test: as above; assay type: cell-based; details: ATCC10, liquid medium, 18 to 20 h at 37°C, read-out: MHK-Werte Kl. pneum. ATCC 10 031
Method: as §3, §4, §5, §6, §7, §8, §9

[4] = system: Serratia marcescens ATCC 13 880; test: as above; assay type: cell-based; details: ATCC13, liquid medium, 18 to 20 h at 37°C, read-out: MHK-Werte Serr. marcesc. ATCC 13 880
Method: as §3, §4, §5, §6, §7, §8, §9

[5] = system: Pseudomonas aeruginosa Hamburgensis; test: as above; assay type: cell-based; details: liquid medium, 18 to 20 h at 37°C, read-out: MHK-Werte Pseud. aerug. Hbg.
Method: as §3, §4, §5, §6, §7, §8, §9

[6] = system: Enterobacter cloacae ATCC 13 047; test: as above; assay type: cell-based; details: ATCC13, liquid medium, 18 to 20 h at 37°C, read-out: MHK-Werte Eb. cloacae 13 047
Method: as §3, §4, §5, §6, §7, §8, §9

[7] = system: Staphylococcus aureus SG 511; test: as above; assay type: cell-based; details: SG511, liquid medium, 18 to 20 h at 37°C, read-out: MHK-Werte Staph. aureus SG 511
Method: as §3, §4, §5, §6, §7, §8, §9

[8] = system: Escherichia coli ATCC 11 775; test: as above; assay type: cell-based; details: ATCC11, liquid medium, 18 to 20 h at 37°C, read-out: MHK-Werte E.coli ATCC 11 755
Method: as §3, §4, §5, §6, §7, §8, §9

[9] = system: Proteus mirabilis Hamburgensis; test: as above; assay type: cell-based; details: liquid medium, 18 to 20 h at 37°C, read-out: MHK-Werte Prot. mir. Hbg.
Method: as §3, §4, §5, §6, §7, §8, §9

[10] = system: Pseudomonas aeruginosa Walter; test: as above; assay type: cell-based; details: liquid medium, 18 to 20 h at 37°C, read-out: MHK-Werte Pseud. aerug. Walter
Method: as §3, §4, §5, §6, §7, §8, §9

| SMILES | ED50 [1] [mg/kg] | ED50 (E.coli ATCC 11 775) [mg/kg] | MIC (Proteus rettgeri BC 7) [µg/mL] | MIC [2] [µg/mL] | MIC [3] [µg/mL] | MIC [4] [µg/mL] | MIC [5] [µg/mL] | MIC [6] [µg/mL] | MIC [7] [µg/mL] | MIC [8] [µg/mL] | MIC [9] [µg/mL] | MIC [10] [µg/mL] |
| --- | --- | --- | --- | --- | --- | --- | --- | --- | --- | --- | --- | --- |
| CCN1CCN(C(=O)N[C@@H](C(=O)N[C@@H]2C(=O)N3[C@@H]2SC(C)(C)[C@@H]3C(=O)O)c2ccccc2)C(=O)C1=O [D, Piperacillin, reference compound] | 186 | 89 | 0.5 (≈ 0.966 µM) | 8 (≈ 15.5 µM) | 4 (≈ 7.73 µM) | 0.5 (≈ 0.966 µM) | 4 (≈ 7.73 µM) | 4 (≈ 7.73 µM) | 0.25 (≈ 0.483 µM) | 2 (≈ 3.86 µM) | 0.25 (≈ 0.483 µM) | 8 (≈ 15.5 µM) |
| CC1(C)S[C@@H]2[C@H](NC(=O)[C@H](NC(=O)Nc3cnc(Nc4ccc(S(N)(=O)=O)cc4)nc3O)c3ccccc3)C(=O)N2[C@H]1C(=O)O [Verbindung 1, D-α-[3-(2-p-Aminosulfonylanilino-4-hydroxy-5-pyrimidinyl)-ureido]-benzylpenicillin-Natrium] | 8.2 | 3.9 | 0.25 (≈ 0.381 µM) | 0.5 (≈ 0.761 µM) | 0.5 (≈ 0.761 µM) | 0.12 (≈ 0.183 µM) | 1 (≈ 1.52 µM) | 0.5 (≈ 0.761 µM) | 0.12 (≈ 0.183 µM) | 0.12 (≈ 0.183 µM) | < 0.03 | 1 (≈ 1.52 µM) |
| CC1(C)S[C@@H]2[C@H](NC(=O)[C@H](NC(=O)Nc3cnc(Nc4ccc(S(N)(=O)=O)cc4)nc3O)c3ccc(O)c(O)c3)C(=O)N2[C@H]1C(=O)O [Verbindung 3] | 10.4 | 3.7 | 1 (≈ 1.45 µM) | 8 (≈ 11.6 µM) | 8 (≈ 11.6 µM) | 4 (≈ 5.81 µM) | 4 (≈ 5.81 µM) | 4 (≈ 5.81 µM) | 0.5 (≈ 0.726 µM) | 1 (≈ 1.45 µM) | 0.5 (≈ 0.726 µM) | 4 (≈ 5.81 µM) |
| CNS(=O)(=O)c1ccc(Nc2ncc(NC(=O)N[C@@H](C(=O)N[C@@H]3C(=O)N4[C@@H]3SC(C)(C)[C@@H]4C(=O)O)c3ccc(O)cc3)c(O)n2)cc1 [Verbindung 7, D-α-[3-(4-Hydroxy-2-p-methylaminosulfonylanilino-5-pyrimidinyl)-ureido]-p-hydroxy-benzylpenicillin-Natrium] | 6.6 | 3.4 | 0.5 (≈ 0.728 µM) | 1 (≈ 1.46 µM) | 1 (≈ 1.46 µM) | 0.12 (≈ 0.175 µM) | 1 (≈ 1.46 µM) | 0.5 (≈ 0.728 µM) | 0.25 (≈ 0.364 µM) | 0.12 (≈ 0.175 µM) | 0.06 (≈ 0.0874 µM) | 1 (≈ 1.46 µM) |
| C[S+]([O-])c1ccc(Nc2ncc(NC(=O)NC(C(=O)NC3C(=O)N4C3SC(C)(C)C4C(=O)O)c3ccccc3)c(O)n2)cc1 (stereo not drawn) [Verbindung 21] | 6.6 | 3 | 0.5 (≈ 0.782 µM) | 1 (≈ 1.56 µM) | 2 (≈ 3.13 µM) | 0.25 (≈ 0.391 µM) | 2 (≈ 3.13 µM) | 2 (≈ 3.13 µM) | 0.25 (≈ 0.391 µM) | 0.25 (≈ 0.391 µM) | 0.12 (≈ 0.188 µM) | 2 (≈ 3.13 µM) |
| CC1(C)SC2C(NC(=O)C(NC(=O)Nc3cnc(Nc4ccc(S(C)(=O)=O)cc4)nc3O)c3ccccc3)C(=O)N2C1C(=O)O (stereo not drawn) [Verbindung 24] | 7.5 | 4.7 | 0.12 (≈ 0.183 µM) | 0.5 (≈ 0.763 µM) | 0.5 (≈ 0.763 µM) | 0.12 (≈ 0.183 µM) | 1 (≈ 1.53 µM) | 2 (≈ 3.05 µM) | 0.25 (≈ 0.381 µM) | 0.12 (≈ 0.183 µM) | 0.06 (≈ 0.0915 µM) | 2 (≈ 3.05 µM) |
| CNC(=O)c1ccc(Nc2ncc(NC(=O)NC(C(=O)NC3C(=O)N4C3SC(C)(C)C4C(=O)O)c3ccc(O)cc3)c(O)n2)cc1 (stereo not drawn) [Verbindung 37] | 8 | 2.8 | 0.5 (≈ 0.768 µM) | 2 (≈ 3.07 µM) | 2 (≈ 3.07 µM) | 0.25 (≈ 0.384 µM) | 1 (≈ 1.54 µM) | 1 (≈ 1.54 µM) | 0.5 (≈ 0.768 µM) | 0.25 (≈ 0.384 µM) | 0.06 (≈ 0.0922 µM) | 1 (≈ 1.54 µM) |
| CC1(C)SC2C(NC(=O)C(NC(=O)Nc3cnc(Nc4ccc(S(N)(=O)=O)c(O)c4)nc3O)c3ccc(O)cc3)C(=O)N2C1C(=O)O (stereo not drawn) [Verbindung 44] | 3.6 | 2.1 | 0.25 (≈ 0.363 µM) | 1 (≈ 1.45 µM) | 1 (≈ 1.45 µM) | 0.12 (≈ 0.174 µM) | 0.5 (≈ 0.726 µM) | 0.5 (≈ 0.726 µM) | 0.25 (≈ 0.363 µM) | 0.12 (≈ 0.174 µM) | 0.03 (≈ 0.0436 µM) | 0.5 (≈ 0.726 µM) |
| CC1(C)SC2C(NC(=O)C(NC(=O)Nc3cnc(Nc4ccc(S(N)(=O)=O)c(O)c4)nc3O)c3ccccc3)C(=O)N2C1C(=O)O (stereo not drawn) [Verbindung 45] | 5.2 | 3.2 | 0.25 (≈ 0.372 µM) | 1 (≈ 1.49 µM) | 0.5 (≈ 0.743 µM) | 0.12 (≈ 0.178 µM) | 1 (≈ 1.49 µM) | 1 (≈ 1.49 µM) | 0.12 (≈ 0.178 µM) | 0.12 (≈ 0.178 µM) | 0.06 (≈ 0.0892 µM) | 0.5 (≈ 0.743 µM) |
| C[S+]([O-])c1ccc(CNc2ncc(NC(=O)NC(C(=O)N[C@@H]3C(=O)N4[C@@H]3SC(C)(C)[C@@H]4C(=O)O)c3ccc(O)cc3)c(O)n2)cc1 (stereo partly drawn) [Verbindung 62] | 18.3 | 5.9 | 1 (≈ 1.49 µM) | 8 (≈ 11.9 µM) | 4 (≈ 5.97 µM) | 1 (≈ 1.49 µM) | 2 (≈ 2.99 µM) | 4 (≈ 5.97 µM) | 0.5 (≈ 0.747 µM) | 0.5 (≈ 0.747 µM) | 0.12 (≈ 0.179 µM) | 2 (≈ 2.99 µM) |
